Test results as given in article PMC11542830, “3-nitropyridine analogues as novel microtubule-targeting agents” (PLOS ONE, 2024).
Where two headings read alike, the source gives them in different places.

What was measured:
SN12C = assay: NCI60 5-dose screen, SN12C; assay type: cell-based; details: Homo sapiens, renal cancer, Fig 1D, read-out: Log10 GI50 (SN12C) (converted)
Procedure: (§1) The screening methodology used in the NCI60 Cell 5-Doses screen is described in detail at https://dtp.cancer.gov/discovery_development/nci-60/methodology.htm. Briefly, cells are seeded in 96 well plates at an appropriate density and incubated for 1 day. After 1 day, some of the plates are processed to determine a time zero density. To the remaining plates, compounds are added over a 5-log M concentration range (1 log dilutions from 10^-4M to 10^-8M). Plates are incubated for two additional days, then fixed and stained with sulforhodamine B. Growth inhibition is calculated relative to cells without drug treatment and the time zero control. The GI50 is the concentration of a compound that causes 50% growth inhibition, relative to the no drug control.

PC3 cells = assay: 3-day MTS cell viability assay, PC3; assay type: cell-based; details: Homo sapiens, PC-3, 72 hours, Fig 1C
Procedure: All cancer cell lines (HT-29: colorectal adenocarcinoma, HCT-116: colorectal carcinoma, A549: lung epithelial carcinoma, PC3: prostate adenocarcinoma, Jurkat: acute T-cell leukemia, BC-1: primary effusion lymphoma) and the normal human embryonal lung fibroblast cell line MRC-5 were acquired from the American Type Culture Collection (ATCC). All cell lines were cultured as recommended by the suppliers. Culture media were purchased from Gibco (Thermo Fisher Scientific) and supplemented with 10 to 20% fetal bovine serum (HyClone, GE Healthcare Life Sciences) and 20–25 μg/mL gentamicin (Gibco, Thermo Fisher Scientific). […]
(§2) Cell viability in cancer cell lines treated with compound was measured in a 3-day MTS cell proliferation assay using the CellTiter 96 AQueous Non-Radioactive Cell Proliferation Assay reagent (Promega) according to the manufacturer’s instructions. Absorbance was read at 490 nm on a SaFire II microplate reader (Tecan). CC50 values were calculated by fitting the obtained MTS cell viability data in GraphPad Prism using a 4-parameter log–based fit for inhibitors. Apoptosis induction and cell death upon compound treatment in PBMC was measured using the Alexa Fluor 488 Annexin V/Dead Cell Apoptosis Kit (Thermo Fisher Scientific), with readout on a FACSCanto II flow cytometer (BD Biosciences). […] The compounds were evaluated in duplo in two independent experiments.

SK-OV-3 = assay: NCI60 5-dose screen, SK-OV-3; assay type: cell-based; details: Homo sapiens, ovarian cancer, Fig 1D, read-out: Log10 GI50 (SK-OV-3) (converted)
Procedure: as §1

K-562 = assay: NCI60 5-dose screen, K-562; assay type: cell-based; details: Homo sapiens, K562; leukemia; Fig 1D; read-out: Log10 GI50 (K-562) (converted)
Procedure: as §1

CCRF-CEM = assay: NCI60 5-dose screen, CCRF-CEM; assay type: cell-based; details: Homo sapiens, leukemia, Fig 1D, read-out: Log10 GI50 (CCRF-CEM) (converted)
Procedure: as §1

SR = assay: NCI60 5-dose screen, SR; assay type: cell-based; details: Homo sapiens, leukemia, Fig 1D, read-out: Log10 GI50 (SR) (converted)
Procedure: as §1

OVCAR-3 = assay: NCI60 5-dose screen, OVCAR-3; assay type: cell-based; details: Homo sapiens, ovarian cancer, Fig 1D, read-out: Log10 GI50 (OVCAR-3) (converted)
Procedure: as §1

IGROV1 = assay: NCI60 5-dose screen, IGROV1; assay type: cell-based; details: Homo sapiens, IGROV-1; ovarian cancer; Fig 1D; read-out: Log10 GI50 (IGROV1) (converted)
Procedure: as §1

UO-31 = assay: NCI60 5-dose screen, UO-31; assay type: cell-based; details: Homo sapiens, renal cancer, Fig 1D, read-out: Log10 GI50 (UO-31) (converted)
Procedure: as §1

[1] = tested on: microtubule network in A549 cells; assay: Immunofluorescence staining of alpha-tubulin in A549 cells; assay type: cell-based, human; details: 4 hours, 250 nM
Procedure: Non-small cell lung carcinoma A549 cells were seeded at 50,000 cells/well in an 8-well Nunc™ Lab-Tek™ chambered coverglass slide. After overnight incubation, they were treated with compound or carrier (DMSO) for 4 hours and then fixed with 4% PFA, washed and permeabilized (0.2% Triton X-100 in PBS). Further treatment was performed according to standard immunofluorescence procedures, employing 10% normal goat serum (Thermo Fisher Scientific) as blocking medium and as antibody diluent. Employed antibodies were mouse anti-alpha tubulin (sc-5286, Santa Cruz Biotechnology) at 1:300 dilution and secondary goat anti-mouse IgG conjugated to Alexa Fluor® 488 (A11001, Invitrogen, Thermo Fisher Scientific). Cell nuclei were counterstained with DAPI. Images were collected with a Leica TCS SP5 confocal microscope employing a HCX PL APO 63x (NA 1.2) water immersion objective.

COLO 205 = assay: NCI60 5-dose screen, COLO 205; assay type: cell-based; details: Homo sapiens, colon cancer, Fig 1D, read-out: Log10 GI50 (COLO 205) (converted)
Procedure: as §1

CAKI-1 = assay: NCI60 5-dose screen, CAKI-1; assay type: cell-based; details: Homo sapiens, renal cancer, Fig 1D, read-out: Log10 GI50 (CAKI-1) (converted)
Procedure: as §1

Jurkat cells = assay: Cell cycle analysis (DAPI, high content imaging), Jurkat; assay type: cell-based, human; details: 24 hours
Procedure: as §2, with “Biosciences). For cell cycle analysis, Jurkat cells were seeded at 400,000 cells per well in 12-well tissue culture plates and treated with the test compounds at the indicated concentrations for 24 h. Cells were then harvested by centrifugation at 400 x g, washed in PBS and transferred to an 8-well μ-Slide (Ibidi) that had been pretreated with 0.1% (w/v) poly-L-lysine (Sigma). Cells were allowed to adhere to the slides, fixed with 4% PFA in PBS for 10 minutes, washed and stained with DAPI.” for “Biosciences).”

[2] = tested on: NCI-60 Human Tumor Cell Lines; assay: NCI-60 Human Tumor Cell Lines Screen (whole panel); assay type: cell-based; details: NCI-60 panel; for GI50: Homo sapiens, mean across all cell lines
Procedure: as §1

SW-620 = assay: NCI60 5-dose screen, SW-620; assay type: cell-based; details: Homo sapiens, colon cancer, Fig 1D, read-out: Log10 GI50 (SW-620) (converted)
Procedure: as §1

UACC-62 = assay: NCI60 5-dose screen, UACC-62; assay type: cell-based; details: Homo sapiens, melanoma, Fig 1D, read-out: Log10 GI50 (UACC-62) (converted)
Procedure: as §1

ACHN = assay: NCI60 5-dose screen, ACHN; assay type: cell-based; details: Homo sapiens, renal cancer, Fig 1D, read-out: Log10 GI50 (ACHN) (converted)
Procedure: as §1

[3] = Fig 1D, read-out: mean GI50 (log10) (converted)
[4] = read-out: mean GI50 across the panel

Row | Structure (SMILES) | GI50 (SN12C) | IC50 (PC3 cells) | GI50 (SK-OV-3) | GI50 (K-562) | GI50 (CCRF-CEM) | GI50 (SR) | GI50 (OVCAR-3) | GI50 (IGROV1) | GI50 (UO-31) | effect on microtubule network [1] | GI50 (COLO 205) | GI50 (CAKI-1) | effect on cell cycle progression (Jurkat cells) | GI50 [2, 3] | GI50 [2, 4] | GI50 (SW-620) | GI50 (UACC-62) | GI50 (ACHN) | number of cell lines with GI50 lower than 10 nM ([2]; out of the cell lines tested)
1 | Cc1cc(C)cc(Nc2ccc([N+](=O)[O-])c(NCCN3CCOCC3)n2)c1 [Compound 4AZA2891, 6-(3,5-dimethylanilino)-2-(2-morpholinoethylamino)-3-nitropyridine] | 0.0708 µM | 0.0119 µM | 0.0589 µM | 0.0115 µM | 0.0331 µM | 0.0174 µM | < 0.01 µM | 0.049 µM | 1.38 µM | disintegrate the microtubule network | 0.0214 µM | < 0.01 µM | induce G2 cell cycle arrest | 0.0355 µM | 0.0355 µM | 0.0148 µM | < 0.01 µM | 0.012 µM | –
2 | Cc1ccnc(Nc2ccc([N+](=O)[O-])c(NCCN3CCOCC3)n2)c1 [Compound 4AZA2996, N^6-(4-methylpyridin-2-yl)-N^2-(2-morpholinoethyl)-3-nitropyridine-2,6-diamine] | 0.0479 µM | 0.0095 µM | < 0.01 µM | < 0.01 µM | 0.0263 µM | < 0.01 µM | < 0.01 µM | 0.0575 µM | < 0.01 µM | disintegrate the microtubule network | < 0.01 µM | < 0.01 µM | induce G2 cell cycle arrest | 0.0219 µM | 0.0219 µM | < 0.01 µM | < 0.01 µM | < 0.01 µM | 31 of the 50
